Results published in patent US12162840B2, “Herbicidal compositions” (SYNGENTA PARTICIPATIONS AG, priority 2018, dated 2024).

Assays:
Type in all cases: in vivo
[1] = tested on: Amaranthus retoflexus (AMARE); test: B1 Post-emergence efficacy Test 1; conditions: post-emergence application, 1000 g/ha, evaluated after 13 days
Method: (§1) Seeds of a variety of test species are sown in standard soil in pots:—Solanum nigrum (SOLNI), Amaranthus retoflexus (AMARE), Setaria faberi (SETFA), Alopecurus myosuroides (ALOMY), Echinochloa crus-galli (ECHCG), Ipomoea hederacea (IPOHE), Lolium perenne (LOLPE). After 8 days cultivation (post-emergence) under controlled conditions in a glasshouse (at 24/16° C., day/night; 14 hours light; 65% humidity), the plants are sprayed with an aqueous spray solution derived from the formulation of the technical active ingredient in acetone/water (50:50) solution containing 0.5% Tween 20 (polyoxyethylene sorbitan monolaurate, CAS RN 9005-64-5). Compounds are applied at 1000 g/ha. The test plants are then grown in a glasshouse under controlled conditions in a glasshouse (at 24/16° C., day/night; 14 hours light; 65% humidity) and watered twice daily. After 13 days, the test is evaluated for the percentage damage caused to the plant. The biological activities are assessed on a five point scale (5=80-100%; 4=60-79%; 3=40-59%; 2=20-39%; 1=0-19%). A blank value in the table is indicative that the compound was not tested on that species.

[2] = tested on: Echinochloa crus-galli (ECHCG); test: B1 Post-emergence efficacy Test 1; conditions: post-emergence application, 1000 g/ha, evaluated after 13 days
Method: as §1

[3] = tested on: Ipomoea hederacea (IPOHE); test: B1 Post-emergence efficacy Test 1; conditions: post-emergence application, 1000 g/ha, evaluated after 13 days
Method: as §1

Lolium perenne (LOLPE) = test: B1 Post-emergence efficacy Test 1; conditions: post-emergence application, 1000 g/ha, evaluated after 13 days
Method: as §1

Setaria faberi (SETFA) = test: B1 Post-emergence efficacy Test 1; conditions: post-emergence application, 1000 g/ha, evaluated after 13 days
Method: as §1

Solanum nigrum (SOLNI) = test: B1 Post-emergence efficacy Test 1; conditions: post-emergence application, 1000 g/ha, evaluated after 13 days
Method: as §1

[4] = tested on: warm season plant species; test: B2 Post-emergence efficacy Test 2, warm season plant species; conditions: 15 days after application, 0-100 scale, 0=no damage, 100=total kill; for Herbicidal activity, ABUTH: Abutilon theophrasti; for Herbicidal activity, AMARE: Amaranthus retroflexus; for Herbicidal activity, BIDPI: Bidens pilosa; for Herbicidal activity, BRAPL: Brachiaria plantaginea; for Herbicidal activity, DIGSA: Digitaria sanguinalis; for Herbicidal activity, ECHCG: Echinochloa crus galli; for Herbicidal activity, ELEIN: Eleisine indica; for Herbicidal activity, EPHHL: Euphorbia hetrophylla; for Herbicidal activity, GLXMA: Glycine max; for Herbicidal activity, IPOHE: Ipomoea hederacea; for Herbicidal activity, ORYSA: Orysa sativa; for Herbicidal activity, PANMI: Panicum miliaceum; for Herbicidal activity, SETFA: Setaria faberi; for Herbicidal activity, SIDSP: Sida spinosa; for Herbicidal activity, SORVU: Sorghum bicolour; for Herbicidal activity, XANST: Xanthium strumarium; for Herbicidal activity, ZEAMX: Zea mays
Method: Seeds of a variety of test species (see Table B1) were sown in standard soil in pots. After cultivation for 12 days (post-emergence) under controlled conditions in a glasshouse (at 24/18° C. or 20/16° C., at day/night; 16 hours light; 65% humidity), the plants were sprayed with an aqueous spray solution derived from the formulation of the technical active ingredient dissolved in IF50 (see Table B2 for composition) and adjuvant (Genapol XO80) was added to the spray solution at a rate of 0.2% v/v. [table] [table] After application, the test plants were grown in a glasshouse under controlled conditions (as above) and watered twice daily. Herbicidal activity was evaluated 15 days after application on a 0-100 scale. The results, where 0=no damage to test plant and 100=total kill of test plant are shown below in Tables 6 to 9.

Cc1nn(C)c(=O)c(-c2c(F)ccc(Cl)c2CCc2ccc(Cl)cc2)c1OC(=O)C(C)C [Compound 1.089]
90: Herbicidal activity, ABUTH ([4]; 30 g/Ha) | Herbicidal activity, AMARE ([4]; 60 g/Ha) | Herbicidal activity, BRAPL ([4]; 30 g/Ha) | Herbicidal activity, BRAPL ([4]; 250 g/Ha) | Herbicidal activity, BRAPL ([4]; 500 g/Ha) | Herbicidal activity, ECHCG ([4]; 125 g/Ha) | Herbicidal activity, ECHCG ([4]; 250 g/Ha) | Herbicidal activity, ELEIN ([4]; 250 g/Ha) | Herbicidal activity, ELEIN ([4]; 500 g/Ha) | Herbicidal activity, PANMI ([4]; 500 g/Ha) | Herbicidal activity, SIDSP ([4]; 60 g/Ha) | Herbicidal activity, SORVU ([4]; 125 g/Ha) | Herbicidal activity, SORVU ([4]; 250 g/Ha) | Herbicidal activity, SORVU ([4]; 500 g/Ha) | Herbicidal activity, XANST ([4]; 30 g/Ha) | Herbicidal activity, XANST ([4]; 125 g/Ha) | Herbicidal activity, XANST ([4]; 250 g/Ha) | Herbicidal activity, ZEAMX ([4]; 250 g/Ha)
70: Herbicidal activity, ABUTH ([4]; 15 g/Ha) | Herbicidal activity, BIDPI ([4]; 15 g/Ha) | Herbicidal activity, BIDPI ([4]; 60 g/Ha) | Herbicidal activity, ELEIN ([4]; 60 g/Ha) | Herbicidal activity, GLXMA ([4]; 30 g/Ha) | Herbicidal activity, SORVU ([4]; 60 g/Ha)
100: Herbicidal activity, ABUTH ([4]; 60 g/Ha) | Herbicidal activity, ABUTH ([4]; 125 g/Ha) | Herbicidal activity, ABUTH ([4]; 250 g/Ha) | Herbicidal activity, ABUTH ([4]; 500 g/Ha) | Herbicidal activity, AMARE ([4]; 125 g/Ha) | Herbicidal activity, AMARE ([4]; 250 g/Ha) | Herbicidal activity, AMARE ([4]; 500 g/Ha) | Herbicidal activity, BIDPI ([4]; 500 g/Ha) | Herbicidal activity, ECHCG ([4]; 500 g/Ha) | Herbicidal activity, EPHHL ([4]; 30 g/Ha) | Herbicidal activity, EPHHL ([4]; 60 g/Ha) | Herbicidal activity, EPHHL ([4]; 125 g/Ha) | Herbicidal activity, EPHHL ([4]; 250 g/Ha) | Herbicidal activity, EPHHL ([4]; 500 g/Ha) | Herbicidal activity, GLXMA ([4]; 250 g/Ha) | Herbicidal activity, GLXMA ([4]; 500 g/Ha) | Herbicidal activity, IPOHE ([4]; 15 g/Ha) | Herbicidal activity, IPOHE ([4]; 30 g/Ha) | Herbicidal activity, IPOHE ([4]; 60 g/Ha) | Herbicidal activity, IPOHE ([4]; 125 g/Ha) | Herbicidal activity, IPOHE ([4]; 250 g/Ha) | Herbicidal activity, IPOHE ([4]; 500 g/Ha) | Herbicidal activity, SIDSP ([4]; 125 g/Ha) | Herbicidal activity, SIDSP ([4]; 250 g/Ha) | Herbicidal activity, SIDSP ([4]; 500 g/Ha) | Herbicidal activity, XANST ([4]; 500 g/Ha) | Herbicidal activity, ZEAMX ([4]; 500 g/Ha)
10: Herbicidal activity, DIGSA ([4]; 125 g/Ha) | Herbicidal activity, ORYSA ([4]; 125 g/Ha)
80: Herbicidal activity, AMARE ([4]; 15 g/Ha) | Herbicidal activity, AMARE ([4]; 30 g/Ha) | Herbicidal activity, BIDPI ([4]; 125 g/Ha) | Herbicidal activity, BIDPI ([4]; 250 g/Ha) | Herbicidal activity, BRAPL ([4]; 15 g/Ha) | Herbicidal activity, ECHCG ([4]; 15 g/Ha) | Herbicidal activity, ECHCG ([4]; 30 g/Ha) | Herbicidal activity, ECHCG ([4]; 60 g/Ha) | Herbicidal activity, ELEIN ([4]; 125 g/Ha) | Herbicidal activity, EPHHL ([4]; 15 g/Ha) | Herbicidal activity, GLXMA ([4]; 60 g/Ha) | Herbicidal activity, PANMI ([4]; 250 g/Ha) | Herbicidal activity, SETFA ([4]; 500 g/Ha) | Herbicidal activity, SIDSP ([4]; 30 g/Ha) | Herbicidal activity, XANST ([4]; 60 g/Ha)
5 (5=80-100%): percentage damage caused to the plant, five point scale, AMARE [1] | percentage damage caused to the plant, five point scale, ECHCG [2] | percentage damage caused to the plant, five point scale, IPOHE [3] | percentage damage caused to the plant, five point scale, LOLPE (Lolium perenne (LOLPE)) | percentage damage caused to the plant, five point scale, SETFA (Setaria faberi (SETFA)) | percentage damage caused to the plant, five point scale, SOLNI (Solanum nigrum (SOLNI))
40: Herbicidal activity, DIGSA ([4]; 250 g/Ha)
60: Herbicidal activity, BIDPI ([4]; 30 g/Ha) | Herbicidal activity, PANMI ([4]; 125 g/Ha) | Herbicidal activity, SETFA ([4]; 125 g/Ha) | Herbicidal activity, SETFA ([4]; 250 g/Ha) | Herbicidal activity, SORVU ([4]; 30 g/Ha)
20: Herbicidal activity, ORYSA ([4]; 250 g/Ha) | Herbicidal activity, PANMI ([4]; 30 g/Ha) | Herbicidal activity, SETFA ([4]; 30 g/Ha) | Herbicidal activity, ZEAMX ([4]; 30 g/Ha)
30: Herbicidal activity, DIGSA ([4]; 500 g/Ha) | Herbicidal activity, SETFA ([4]; 60 g/Ha) | Herbicidal activity, ZEAMX ([4]; 60 g/Ha) | Herbicidal activity, ZEAMX ([4]; 125 g/Ha)
50: Herbicidal activity, ORYSA ([4]; 500 g/Ha) | Herbicidal activity, PANMI ([4]; 60 g/Ha)
0: Herbicidal activity, DIGSA ([4]; 15 g/Ha) | Herbicidal activity, DIGSA ([4]; 30 g/Ha) | Herbicidal activity, DIGSA ([4]; 60 g/Ha) | Herbicidal activity, ELEIN ([4]; 15 g/Ha) | Herbicidal activity, ELEIN ([4]; 30 g/Ha) | Herbicidal activity, ORYSA ([4]; 15 g/Ha) | Herbicidal activity, ORYSA ([4]; 30 g/Ha) | Herbicidal activity, ORYSA ([4]; 60 g/Ha) | Herbicidal activity, PANMI ([4]; 15 g/Ha) | Herbicidal activity, SETFA ([4]; 15 g/Ha) | Herbicidal activity, SORVU ([4]; 15 g/Ha) | Herbicidal activity, ZEAMX ([4]; 15 g/Ha)
